These results are taken from patent US7442699B2, “Anilinopyrimidine derivatives as IKK inhibitors and compositions and methods related thereto” (Signal Pharmaceuticals, LLC, priority 2000, dated 2008).

Where a name gives a salt, the structure may show the parent alone. Read-outs that look alike come from different tables or passages of the source.

This assay addresses T1, IKK-2 (Homo sapiens, UniProt O14920, S177E/S181E).
T1 construct: His6
T1 sequence (O14920 1-756 S177E/S181E): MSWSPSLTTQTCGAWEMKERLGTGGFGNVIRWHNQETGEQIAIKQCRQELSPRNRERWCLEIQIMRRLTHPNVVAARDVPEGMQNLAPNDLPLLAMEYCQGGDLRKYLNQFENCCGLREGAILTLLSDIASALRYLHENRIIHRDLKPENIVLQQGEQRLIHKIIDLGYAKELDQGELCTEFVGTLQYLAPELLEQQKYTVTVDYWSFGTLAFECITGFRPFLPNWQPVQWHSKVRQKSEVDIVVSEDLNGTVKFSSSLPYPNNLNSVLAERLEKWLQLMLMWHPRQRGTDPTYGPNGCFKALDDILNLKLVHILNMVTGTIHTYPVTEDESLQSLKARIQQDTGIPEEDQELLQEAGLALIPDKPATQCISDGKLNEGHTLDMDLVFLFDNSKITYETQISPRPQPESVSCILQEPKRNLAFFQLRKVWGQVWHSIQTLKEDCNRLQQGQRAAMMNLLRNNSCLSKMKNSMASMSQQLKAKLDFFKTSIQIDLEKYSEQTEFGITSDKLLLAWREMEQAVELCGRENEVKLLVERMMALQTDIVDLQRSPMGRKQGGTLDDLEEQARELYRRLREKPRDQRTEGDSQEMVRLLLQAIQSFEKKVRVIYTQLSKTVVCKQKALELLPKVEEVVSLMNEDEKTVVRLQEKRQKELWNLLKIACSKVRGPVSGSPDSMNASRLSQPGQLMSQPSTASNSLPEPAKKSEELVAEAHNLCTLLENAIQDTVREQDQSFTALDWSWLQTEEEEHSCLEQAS
The experiment in a line: IKK-2 Enzyme Assay. The assay is classed as biochemical. To be noted: read-out: IC50 value in the IKK-2 Enzyme Assay. The method, then: The mixture is preincubated for 15 minutes at room temperature. […] After 30 minutes the precipitate is harvested onto a filter plate to which 50 μl of scintillation fluid is added and then quantified by a scintillation counter.

The mark [1] stands for this setting: more preferred compounds, 500 nM or less.
Where [2] appears, read: preferred compounds, 1 μM or less.

For `CN(C)CCN(Cc1ccccc1)C(=O)c1ccc(Nc2nccc(-c3ccc(Cl)cc3)n2)cc1` [Compound 17-150], the IC50 (commonly the concentration that gives 50% inhibition) is, setting by setting: under setting [1], at most 0.5 µM; under setting [2], at most 1 µM.

On to `O=C(NC1CCN(C(=O)c2ccc(Nc3nccc(-c4ccc(Cl)cc4)n3)cc2)CC1)c1cccs1` [Compound 20-3], for which the IC50 by setting is: under setting [1], at most 0.5 µM; under setting [2], at most 1 µM.

Take `CC(=O)N1CCN(C(=O)c2ccc(Nc3nccc(-c4ccc(S(=O)(=O)c5ccncc5)cc4)n3)cc2)CC1` [Compound 17-29]: the IC50 reads like this: under setting [1], at most 0.5 µM; under setting [2], at most 1 µM.

With `O=C(c1ccc(Nc2nccc(-c3ccc(Cl)cc3)n2)cc1)N1CCC(N2CCCC2)CC1` [Compound 17-171], the IC50 was at most 0.5 µM under setting [1] and at most 1 µM under setting [2].

In the case of `CCN1CCN(C(=O)c2ccc(Nc3nccc(-c4ccc(Cl)cc4)n3)cc2)CC1` [Compound 17-35], the IC50 is at most 0.5 µM under setting [1] and at most 1 µM under setting [2].

`CN(C)C(=O)c1ccc(Nc2nccc(-c3ccc(Cl)cc3)n2)cc1` [Compound 17-2]: the IC50 is at most 0.5 µM under setting [1] and at most 1 µM under setting [2].

Turning to `C[C@@H]1CN(C(=O)c2ccc(Nc3nccc(-c4ccc(Cl)cc4)n3)cc2)C[C@H](C)N1` [Compound 17-190], the IC50 is at most 0.5 µM under setting [1] and at most 1 µM under setting [2].

`O=C(c1ccc(Nc2nccc(-c3ccc(Cl)cc3)n2)cc1)N1CCN(c2ccc([N+](=O)[O-])cc2)CC1` [Compound 17-136]: the IC50 under setting [2] was at most 1 µM.

Regarding `O=C(c1ccc(Nc2nccc(-c3ccc(Cl)cc3)n2)cc1)N1CCC(O)CC1` [Compound 17-20], the IC50 by setting is: under setting [1], at most 0.5 µM; under setting [2], at most 1 µM.

For the molecule `CN(CCc1ccccn1)C(=O)c1ccc(Nc2nccc(-c3ccc(Cl)cc3)n2)cc1` [Compound 17-151], the IC50 under setting [2] was at most 1 µM.

As to `O=CN1CCN(C(=O)c2ccc(Nc3nccc(-c4ccc(Cl)cc4)n3)cc2)CC1` [Compound 17-131], the IC50 is at most 0.5 µM under setting [1] and at most 1 µM under setting [2].

With `O=C(c1ccc(Nc2nccc(-c3ccc(Cl)cc3)n2)cc1)N1CCN(Cc2ccc3c(c2)OCO3)CC1` [Compound 17-128], the IC50 under setting [2] is at most 1 µM.

For the molecule `O=C(NCCCN1CCCCC1)c1ccc(Nc2nccc(-c3ccc(Cl)cc3)n2)cc1` [Compound 17-23], the IC50 under setting [2] is at most 1 µM.

With `NC(=O)c1ccc(Nc2nccc(-c3ccc4ccccc4c3)n2)cc1` [Compound 3-34], the IC50 under setting [2] is at most 1 µM.

For `O=C(c1ccc(Nc2nccc(-c3ccc(Cl)cc3)n2)cc1)N1CCN(c2ccccc2)CC1` [Compound 17-158], under setting [2], the concentration for half-maximal inhibition (IC50) was at most 1 µM.

In the case of `O=C(c1ccc(Nc2nccc(-c3ccc(Cl)cc3)n2)cc1)N1CC=CCC1` [Compound 17-144], under setting [2], the IC50 was at most 1 µM.

Regarding `CC(C)(C)OC(=O)N1CCN(C(=O)c2ccc(Nc3nccc(-c4ccc(Cl)cc4)n3)cc2)CC1` [Compound 17-36], the IC50 reads like this: under setting [1], at most 0.5 µM; under setting [2], at most 1 µM.

With `O=C(c1ccc(Nc2nccc(-c3ccc(Cl)cc3)n2)cc1)N1CCC[C@@H]1CO` [Compound 17-27], the IC50 under setting [1] was at most 0.5 µM and the IC50 under setting [2] was at most 1 µM.

Take `CCN(Cc1ccncc1)C(=O)c1ccc(Nc2nccc(-c3ccc(Cl)cc3)n2)cc1` [Compound 17-147]: the 50% inhibitory concentration (IC50) under setting [2] is at most 1 µM.

Turning to `CC(=O)NC1CCN(C(=O)c2ccc(Nc3nccc(-c4ccc(Cl)cc4)n3)cc2)CC1` [Compound 20-1, N-{1-[(4-{[4-(4-Chlorophenyl)pyrimidin-2-yl]amino}phenyl)carbonyl]-4-piperidyl}acetamide], the IC50 is, setting by setting: under setting [1], at most 0.5 µM; under setting [2], at most 1 µM.

In the case of `O=C(NCCCO)c1ccc(Nc2nccc(-c3ccc(Cl)cc3)n2)cc1` [Compound 17-25], the IC50 under setting [2] is at most 1 µM.

With `O=C(c1ccc(Nc2nccc(-c3ccc(SCCCO)cc3)n2)cc1)N1CCN(C(=O)c2ccco2)CC1` [Compound 17-34], the IC50 is, setting by setting: under setting [1], at most 0.5 µM; under setting [2], at most 1 µM.

As for `CN(C)CCCNC(=O)c1ccc(Nc2nccc(-c3ccc(Cl)cc3)n2)cc1` [Compound 17-154], the IC50 is at most 0.5 µM under setting [1] and at most 1 µM under setting [2].

Turning to `CC(C)NC(=O)CN1CCN(C(=O)c2ccc(Nc3nccc(-c4ccc(Cl)cc4)n3)cc2)CC1` [Compound 17-141], the IC50 under setting [1] is at most 0.5 µM and the IC50 under setting [2] is at most 1 µM.

Take `O=C(c1ccc(Nc2nccc(-c3ccc(Cl)cc3)n2)cc1)N1CCC(O)C1` (stereo not drawn) [Compound 17-28]: the IC50 under setting [1] was at most 0.5 µM and the IC50 under setting [2] is at most 1 µM.

For the molecule `CC(=O)NCCNC(=O)c1ccc(Nc2nccc(-c3ccc(Cl)cc3)n2)cc1` [Compound 17-22], under setting [2], the IC50 was at most 1 µM.

On to `O=C(c1ccc(Nc2nccc(-c3ccc(Cl)cc3)n2)cc1)N1CCC(N2CCCCC2)CC1` [Compound 17-169], for which the IC50 reads like this: under setting [1], at most 0.5 µM; under setting [2], at most 1 µM.

`COCCCNC(=O)c1ccc(Nc2nccc(-c3ccc(Cl)cc3)n2)cc1` [Compound 17-72]: the IC50 under setting [2] was at most 1 µM.

On to `CC(=O)N1CCN(C(=O)c2ccc(Nc3nccc(-c4ccc(SCCCO)cc4)n3)cc2)CC1` [Compound 17-33], for which the IC50 runs as follows: under setting [1], at most 0.5 µM; under setting [2], at most 1 µM.

As to `NC(=O)c1ccc(Nc2nccc(-c3ccc(S(=O)(=O)c4ccccn4)cc3)n2)cc1` [Compound 3-9], the IC50 under setting [2] is at most 1 µM.

On to `CC(C)NC(=O)CN1CCN(C(=O)c2ccc(Nc3nccc(-c4ccc(SCCCO)cc4)n3)cc2)CC1` [Compound 17-32], for which the IC50 runs as follows: under setting [1], at most 0.5 µM; under setting [2], at most 1 µM.

Turning to `O=C(c1ccc(Nc2nccc(-c3ccc(Cl)cc3)n2)cc1)N1CCNCC1` [Compound 18, 4-{[4-(4-chlorophenyl)pyrimidin-2-yl]amino}benzoic acid piperazine amide hydrochloride], the IC50 runs as follows: under setting [1], at most 0.5 µM; under setting [2], at most 1 µM.

For the molecule `O=C(c1ccc(Nc2nccc(-c3ccc(Cl)cc3)n2)cc1)N1CCCCC1` [Compound 17-71], the IC50 under setting [2] was at most 1 µM.

In the case of `CC(=O)N1CCCN(C(=O)c2ccc(Nc3nccc(-c4ccc(Cl)cc4)n3)cc2)CC1` [Compound 17-160], the IC50 is at most 0.5 µM under setting [1] and at most 1 µM under setting [2].

For `O=C(c1ccc(Nc2nccc(-c3ccc(Cl)cc3)n2)cc1)N1CCN(Cc2cccnc2)CC1` [Compound 17-161], the IC50 is, setting by setting: under setting [1], at most 0.5 µM; under setting [2], at most 1 µM.

For `CN1CCCC1CCNC(=O)c1ccc(Nc2nccc(-c3ccc(Cl)cc3)n2)cc1` (stereo not drawn) [Compound 17-152], the IC50 under setting [2] was at most 1 µM.

`O=C(c1ccc(Nc2nccc(-c3ccc(Cl)cc3)n2)cc1)N1CCN(C(=O)c2ccco2)CC1` [Compound 17-159]: the IC50 under setting [1] was at most 0.5 µM and the IC50 under setting [2] was at most 1 µM.

As to `CN(C)C(=O)c1ccc(Nc2nccc(-c3ccc(SCCCO)cc3)n2)cc1` [Compound 17-31], the IC50 under setting [1] is at most 0.5 µM and the IC50 under setting [2] is at most 1 µM.

As for `O=C(c1ccc(Nc2nccc(-c3ccc(Cl)cc3)n2)cc1)N1CCN(CCO)CC1` [Compound 17-215], the IC50 was at most 0.5 µM under setting [1] and at most 1 µM under setting [2].

Turning to `O=C(c1ccc(Nc2nccc(-c3ccc(S(=O)(=O)c4ccncc4)cc3)n2)cc1)N1CCN(C(=O)c2ccco2)CC1` [Compound 17-30], the IC50 is, setting by setting: under setting [1], at most 0.5 µM; under setting [2], at most 1 µM.

Regarding `COC(=O)CNC(=O)c1ccc(Nc2nccc(-c3ccc(Cl)cc3)n2)cc1` [Compound 17-91], the IC50 is, setting by setting: under setting [1], at most 0.5 µM; under setting [2], at most 1 µM.

On to `CC(=O)N1CCN(C(=O)c2ccc(Nc3nccc(-c4ccc(Cl)cc4)n3)cc2)CC1` [Compound 17-129], for which the IC50 is at most 0.5 µM under setting [1] and at most 1 µM under setting [2].

`O=C(NCCc1ccccn1)c1ccc(Nc2nccc(-c3ccc(Cl)cc3)n2)cc1` [Compound 17-118]: under setting [2], the IC50 is at most 1 µM.

With `O=C(c1ccc(Nc2nccc(-c3ccc(Cl)cc3)n2)cc1)N1CCOCC1` [Compound 17-133], the IC50 was at most 0.5 µM under setting [1] and at most 1 µM under setting [2].

`CCC(=O)N1CCN(C(=O)c2ccc(Nc3nccc(-c4ccc(Cl)cc4)n3)cc2)CC1` [Compound 17-37]: under setting [1], the IC50 is at most 0.5 µM.

For `CN(C)C(=O)c1ccc(Nc2nccc(-c3ccc(Br)cc3)n2)cc1` [Compound 17-18], the IC50 runs as follows: under setting [1], at most 0.5 µM; under setting [2], at most 1 µM.

`NC(=O)c1ccc(Nc2nccc(-c3ccc(Cl)cc3)n2)cc1` [Compound 1, 4-{[4-(4-chlorophenyl)pyrimidin-2-yl]amino}benzamide]: under setting [2], the IC50 was at most 1 µM.

Consider `NC(=O)c1ccc(Nc2nccc(-c3ccc(S(=O)(=O)c4cccnc4)cc3)n2)cc1` [Compound 3-13], for which the IC50 under setting [2] was at most 1 µM.

As to `CC(=O)N(C)C1CCN(C(=O)c2ccc(Nc3nccc(-c4ccc(Cl)cc4)n3)cc2)C1` (stereo not drawn) [Compound 17-163], the IC50 is, setting by setting: under setting [1], at most 0.5 µM; under setting [2], at most 1 µM.

`O=C(NCCCN1CCCC1=O)c1ccc(Nc2nccc(-c3ccc(Cl)cc3)n2)cc1` [Compound 17-54]: under setting [2], the IC50 is at most 1 µM.
